Assay results reported in ChEMBL document CHEMBL1156250, “Novel three-component domino reactions of ketones, isatin and amino acids: synthesis and discovery of antimycobacterial activity of highly functionalised novel dispiropyrrolidines” (2010).
Values after ≈ are worked out from the molar mass of the structure shown.

How the values were obtained:
Format in all cases: functional
[1] = system: Mycobacterium tuberculosis; experiment: Antimycobacterial activity against Mycobacterium tuberculosis H37Rv by agar dilution method
[2] = system: Mycobacterium tuberculosis; experiment: Ratio of compound MIC over pyrazinamide MIC for Mycobacterium tuberculosis H37Rv
[3] = system: Mycobacterium tuberculosis; experiment: Ratio of compound MIC over ethambutol MIC for Mycobacterium tuberculosis H37Rv

| Compound | MIC [1] [µM] | further results |
| --- | --- | --- |
| Cc1ccc2c(c1)C1(NC(c3ccccc3)C(c3ccccc3)C13CCCCC3=O)C(=O)N2 (stereo not drawn) | 115 (≈ 50 µg/mL) | – |
| O=C1Nc2ccc(Cl)cc2C12C1CCCN1C1(C(=O)Nc3ccc(Cl)cc31)C1CCCN12 (stereo not drawn) | 26.6 (≈ 12.5 µg/mL) | – |
| CN1CCC2(CCCCC2=O)C12C(=O)Nc1ccc(Br)cc12 (stereo not drawn) | 4.29 (≈ 1.56 µg/mL) | – |
| CN1CCC2(CCCCCC2=O)C12C(=O)Nc1ccc(Br)cc12 (stereo not drawn) | 4.13 (≈ 1.56 µg/mL) | – |
| O=C1Nc2ccccc2C12NC(c1ccccc1)C(c1ccccc1)C21CCCCC1=O (stereo not drawn) | 118 (≈ 50 µg/mL) | – |
| CC(C)c1cccc2c1NC(=O)C21N(C)CCC12CCCCC2=O (stereo not drawn) | 38.3 (≈ 12.5 µg/mL) | – |
| NNC(=O)c1ccncc1 [ISONIAZID] | 0.36 (≈ 0.0494 µg/mL) | – |
| CC(C)c1cccc2c1NC(=O)C21N(C)CCC12CCCCCC2=O (stereo not drawn) | 73.4 (≈ 25 µg/mL) | – |
| CC(C)c1cccc2c1NC(=O)C21N(C)CCC12CCCC2=O (stereo not drawn) | 160 (≈ 50 µg/mL) | – |
| O=C1Nc2ccc(Br)cc2C12NC(c1ccccc1)C(c1ccccc1)C21CCCCC1=O (stereo not drawn) | 6.24 (≈ 3.13 µg/mL) | – |
| CN1CCC(=O)C2(C1)C(c1ccccc1)C(c1ccccc1)NC21C(=O)Nc2ccc(Cl)cc21 (stereo not drawn) | 26.5 (≈ 12.5 µg/mL) | – |
| CN1CCC2(CCCCCC2=O)C12C(=O)Nc1ccc(Cl)cc12 (stereo not drawn) | 18.8 (≈ 6.25 µg/mL) | – |
| CC(C)c1cccc2c1NC(=O)C21N(C)CCC12CN(N=O)CCC2=O (stereo not drawn) | 8.78 (≈ 3.13 µg/mL) | – |
| CN1CCC2(CCCC2=O)C12C(=O)Nc1ccc(Cl)cc12 (stereo not drawn) | 41 (≈ 12.5 µg/mL) | – |
| CN1CCC2(CN(N=O)CCC2=O)C12C(=O)Nc1ccc(Cl)cc12 (stereo not drawn) | 4.47 (≈ 1.56 µg/mL) | – |
| NC(=O)c1cnccn1 [PYRAZINAMIDE] | 50.8 (≈ 6.25 µg/mL) | – |
| O=C1Nc2ccccc2C12NC(c1ccccc1)C(c1ccccc1)C21CCCC1=O (stereo not drawn) | 61.2 (≈ 25 µg/mL) | – |
| Cc1ccc2c(c1)C1(C(=O)N2)N(C)CCC12CN(C)CCC2=O (stereo not drawn) | 19.9 (≈ 6.25 µg/mL) | – |
| O=C1Nc2ccccc2C12C1CCCN1C1(C(=O)Nc3ccccc31)C1CCCN12 (stereo not drawn) | 125 (≈ 50 µg/mL) | – |
| CN1CCC(=O)C2(CCN(C)C23C(=O)Nc2ccc(Cl)cc23)C1 (stereo not drawn) | 37.5 (≈ 12.5 µg/mL) | – |
| O=C1Nc2ccc(Cl)cc2C12NC(c1ccccc1)C(c1ccccc1)C21CCCCC1=O (stereo not drawn) | 13.7 (≈ 6.25 µg/mL) | – |

| Compound | MIC [1] [µM] | further results |
| --- | --- | --- |
| CN1CCC(=O)C2(CCN(C)C23C(=O)Nc2ccc(Br)cc23)C1 (stereo not drawn) | 33 (≈ 12.5 µg/mL) | – |
| Cc1ccc2c(c1)C1(C(=O)N2)N(C)CCC12CCCCC2=O (stereo not drawn) | 41.9 (≈ 12.5 µg/mL) | – |
| Cc1ccc2c(c1)C1(C(=O)N2)N(C)CCC12CN(N=O)CCC2=O (stereo not drawn) | 4.75 (≈ 1.56 µg/mL) | – |
| O=C1Nc2ccc(Br)cc2C12NC(c1ccccc1)C(c1ccccc1)C21CN(c2ccccc2)CCC1=O (stereo not drawn) | 10.6 (≈ 6.1 µg/mL) | – |
| Cc1ccc2c(c1)C1(C(=O)N2)N(C)CCC12CCCCCC2=O (stereo not drawn) | 40 (≈ 12.5 µg/mL) | – |
| CN1CCC(=O)C2(C1)C(c1ccccc1)C(c1ccccc1)NC21C(=O)Nc2ccc(Br)cc21 (stereo not drawn) | 6.06 (≈ 3.13 µg/mL) | – |
| Cc1ccc2c(c1)C1(NC(c3ccccc3)C(c3ccccc3)C13CN(c1ccccc1)CCC3=O)C(=O)N2 (stereo not drawn) | 23.7 (≈ 12.2 µg/mL) | – |
| CC(C)c1cccc2c1NC(=O)C21N(C)CCC12CN(C)CCC2=O (stereo not drawn) | 36.6 (≈ 12.5 µg/mL) | – |
| CC[C@@H](CO)NCCN[C@@H](CC)CO [ETHAMBUTOL] | 7.64 (≈ 1.56 µg/mL) | – |
| CC(C)c1cccc2c1NC(=O)C21NC(c2ccccc2)C(c2ccccc2)C12CCCC2=O (stereo not drawn) | 27.7 (≈ 12.5 µg/mL) | – |
| CN1CCC2(CN(N=O)CCC2=O)C12C(=O)Nc1ccc(Br)cc12 (stereo not drawn) | 1.98 (≈ 0.779 µg/mL) | Ratio [2]: 25.64; Ratio [3]: 3.86 |
| CN1CCC2(CCCC2=O)C12C(=O)Nc1ccc(Br)cc12 (stereo not drawn) | 8.96 (≈ 3.13 µg/mL) | – |
| CC(C)c1cccc2c1NC(=O)C21NC(c2ccccc2)C(c2ccccc2)C12CN(c1ccccc1)CCC2=O (stereo not drawn) | 22.5 (≈ 12.2 µg/mL) | – |
| O=C1Nc2ccc(Cl)cc2C12NC(c1ccccc1)C(c1ccccc1)C21CN(c2ccccc2)CCC1=O (stereo not drawn) | 22.8 (≈ 12.2 µg/mL) | – |
| CC(C)c1cccc2c1NC(=O)C21NC(c2ccccc2)C(c2ccccc2)C12CN(C)CCC2=O (stereo not drawn) | 26.1 (≈ 12.5 µg/mL) | – |
| CN1CCC2(CCCCC2=O)C12C(=O)Nc1ccc(Cl)cc12 (stereo not drawn) | 39.2 (≈ 12.5 µg/mL) | – |
| CC(C)c1cccc2c1NC(=O)C21NC(c2ccccc2)C(c2ccccc2)C12CCCCC2=O (stereo not drawn) | 13.4 (≈ 6.25 µg/mL) | – |
| Cc1ccc2c(c1)C1(NC(c3ccccc3)C(c3ccccc3)C13CN(C)CCC3=O)C(=O)N2 (stereo not drawn) | 55.4 (≈ 25 µg/mL) | – |
| O=C1Nc2ccc(Br)cc2C12C1CCCN1C1(C(=O)Nc3ccc(Br)cc31)C1CCCN12 (stereo not drawn) | 5.61 (≈ 3.13 µg/mL) | – |
| Cc1ccc2c(c1)C1(C(=O)N2)C2CCCN2C2(C(=O)Nc3ccc(C)cc32)C2CCCN21 (stereo not drawn) | 29.2 (≈ 12.5 µg/mL) | – |
